Assay results as given in patent US12109264B2, “Motile sperm domain containing protein 2 and inflammation” (ImmuneWalk Therapeutics, Inc., priority 2015, dated 2024).
Entries after “also recorded” stand apart in the source; their conditions may differ.

What was measured:
[1] = molecular target: T1, HA-tagged human MOSPD2 on HEK293 cells (Homo sapiens, UniProt Q8NHP6); assay: Cell-surface binding by flow cytometry on transfected HEK293 cells; settings: for staining of / binding to cells that express MOSPD2 (HA positive): labelled compound (OB201/OB221), streptavidin-APC, HEK293 transfected with HA-tagged MOSPD2
T1 construct: Full length human MOSPD2 cDNA was inserted, using EcoRI and XbaI restriction sites; HA (YPYDVPDYA); expressed in transfected cells; host or cells: HEK293
T1 sequence (Q8NHP6 1-518): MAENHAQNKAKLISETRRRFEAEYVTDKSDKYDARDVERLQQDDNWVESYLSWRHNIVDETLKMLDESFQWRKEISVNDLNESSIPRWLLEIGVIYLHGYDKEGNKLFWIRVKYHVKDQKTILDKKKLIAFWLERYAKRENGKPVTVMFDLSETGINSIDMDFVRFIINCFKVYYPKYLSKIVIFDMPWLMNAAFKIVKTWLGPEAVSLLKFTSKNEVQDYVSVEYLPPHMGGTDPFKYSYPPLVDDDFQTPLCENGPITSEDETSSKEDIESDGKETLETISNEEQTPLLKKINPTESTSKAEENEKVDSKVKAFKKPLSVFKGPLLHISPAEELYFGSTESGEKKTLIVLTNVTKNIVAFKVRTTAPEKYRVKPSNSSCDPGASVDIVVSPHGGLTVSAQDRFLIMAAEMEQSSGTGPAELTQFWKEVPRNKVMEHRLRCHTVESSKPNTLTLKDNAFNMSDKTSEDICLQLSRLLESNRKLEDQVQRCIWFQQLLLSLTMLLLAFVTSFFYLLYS
Method: HEK293 cells were transfected for 48 hours with empty plasmid or plasmid encoding hemagglutinin (HA)-tagged human MOSPD2 using jetPRIME transfection reagent (Polyplus transfection, France). Transfection efficiency was determined by flow cytometry using anti-HA-PE (miltenyi Biotec, Germany) antibody.
(§1) VB-201 and VB-221 were labeled with biotin as follows. VB-201, VB-221 and ovalbumin (OVA, Sigma, Israel) were dissolved in 0.1M MES buffer (Thermo Scientific, Rockford, IL) and conjugated using EDC [1-ethyl-3-(dimethylaminopropyl) carbodiimide HCL] (Thermo Scientific) at a molar ratio of 100 (VB-201/VB-221):1 (OVA):240 (EDC) for 2-3 hr at room temperature. After which, samples were transferred to 10 kDa dialysis cassettes (Thermo Scientific) and dialyzed overnight against PBS. The ovalbumin bound VB-201 (OB201) and VB-221 (OB221) were then conjugated with amine-PEG2-biotin (in 0.1M MES buffer) using EDC at a molar ratio of 1 (OB201/0B221):100 (amine-PEG2-biotin):700 (EDC). The reaction was allowed to proceed for 2-3 hr at room temperature after which samples were again transferred to a 10 kDa dialysis cassette and dialyzed overnight against PBS.
Streptavidin-APC (eBioscience, San Diego, CA) was used to detect binding of labelled VB-201 or VB-221 in flow cytometry experiments.
Studies were also conducted to assess whether VB-201 can bind MOSPD2 in its native form, when expressed on the cell surface. Thus, HEK293 cells were transfected with a plasmid encoding HA-tagged human MOSPD2 and then stained with labelled VB-201 or VB-221.

[2] = molecular target: T2, MOSPD2 (Homo sapiens, UniProt Q8NHP6); assay: Precipitation from human CD14 monocyte lysate, blot against MOSPD2; format: binding; settings: labelled compound (OB201/OB221)
T2 construct: labelled VB-201 and VB-221 were employed on cell lysates from human CD14 monocytes; endogenous in cells; host or cells: primary human CD14 monocytes from peripheral blood of healthy donors
T2 sequence (Q8NHP6 1-518): T1 sequence (Q8NHP6 1-518)
Method: as §1
(§2) Cells were lysed using a 1% NP-40 lysis buffer containing 1:100 protease and phosphatase inhibitors, followed by 20 min incubation on ice and 15 min centrifugation at maximum speed. Samples were incubated overnight at 4° C. with solvent, OB201 or OB221 in a rotator. Streptavidin agarose beads (Sigma, Israel) were added for 2 hours. Protein elution was performed with lysis buffer without DTT for 10 min at room temperature. Sample loading, transfer and immuno-blotting were performed as described above. […]

[3] = tested on: monocytes; settings: cited from earlier work
[4] = molecular target: T2, MOSPD2; assay: Precipitation of human monocyte proteins with labeled compound, differential display by Mass-Spectrometry; format: binding; settings: proteins from human monocytes
[5] = molecular target: T3, TLR2 (Homo sapiens, UniProt O60603); assay: Precipitation from human CD14 monocyte lysate, blot against TLR2; format: binding; settings: labelled compound (OB201/OB221)
T3 construct: endogenous in cells; host or cells: primary human CD14 monocytes
Method: as §1, §2

[6] = tested on: chemokine-induced signaling in human monocytes; settings: cited from earlier work

T3 sequence (O60603 21-784): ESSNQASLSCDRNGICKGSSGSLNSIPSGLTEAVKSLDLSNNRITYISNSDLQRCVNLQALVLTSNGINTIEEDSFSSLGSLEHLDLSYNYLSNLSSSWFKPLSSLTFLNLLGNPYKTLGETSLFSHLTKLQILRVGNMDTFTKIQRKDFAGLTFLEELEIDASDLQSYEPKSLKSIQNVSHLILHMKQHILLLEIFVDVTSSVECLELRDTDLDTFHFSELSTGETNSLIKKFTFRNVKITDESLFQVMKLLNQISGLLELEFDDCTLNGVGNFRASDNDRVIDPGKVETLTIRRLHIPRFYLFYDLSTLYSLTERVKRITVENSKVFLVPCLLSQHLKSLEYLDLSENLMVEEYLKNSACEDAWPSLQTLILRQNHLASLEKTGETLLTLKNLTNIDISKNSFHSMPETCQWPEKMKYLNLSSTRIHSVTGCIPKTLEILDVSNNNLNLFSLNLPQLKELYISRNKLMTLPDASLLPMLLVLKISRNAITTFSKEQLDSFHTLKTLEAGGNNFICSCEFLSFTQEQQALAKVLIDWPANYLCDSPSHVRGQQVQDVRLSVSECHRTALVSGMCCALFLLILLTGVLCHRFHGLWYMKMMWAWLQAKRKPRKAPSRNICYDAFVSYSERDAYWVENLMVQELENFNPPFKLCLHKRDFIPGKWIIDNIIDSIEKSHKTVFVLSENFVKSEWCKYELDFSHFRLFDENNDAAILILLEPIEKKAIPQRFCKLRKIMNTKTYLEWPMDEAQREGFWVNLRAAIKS

| Molecule | binding to cells transfected with empty vector ([1]; HEK293 transfected with empty vector) | staining of / binding to cells that express MOSPD2 (HA positive) [1] | precipitation of MOSPD2 [2] | migration of monocytes ([3]; in vitro and in vivo) | binding of MOSPD2 (Mass-Spectrometry of precipitated proteins) [4] | precipitation of TLR2 [5] | chemokine-induced migration in human monocytes [3] | chemokine-induced signaling in human monocytes [6] |
| --- | --- | --- | --- | --- | --- | --- | --- | --- |
| 1-hexadecyl-2-(4′-carboxy)butyl-glycero-3-phosphocholine [VB-201] | not | binds; also recorded: profound staining | binds; also recorded: markedly more intense than VB-221 | inhibits | strong binding | comparable intensity | – | – |
| CCCCCCCCCCC(CCCCCCCC)COCC(COP(=O)([O-])OCC[N+](C)(C)C)OCCCCC(=O)O (centres unmarked) [VB-221, 1-(2′-octyl)dodecyl-2-(4′-carboxy)butyl-glycero-3-phosphocholine] | – | only weak staining | – | – | not | comparable intensity | did not inhibit | did not inhibit |
